# Measurements from patent US9108944B2, “Androgen receptor modulators and uses thereof” (ARAGON PHARMACEUTICALS, INC., priority 2010, dated 2015).
# Target: T1, AR-VP16 (Homo sapiens, UniProt P10275)
# T1 sequence (P10275 560-920 limits assumed): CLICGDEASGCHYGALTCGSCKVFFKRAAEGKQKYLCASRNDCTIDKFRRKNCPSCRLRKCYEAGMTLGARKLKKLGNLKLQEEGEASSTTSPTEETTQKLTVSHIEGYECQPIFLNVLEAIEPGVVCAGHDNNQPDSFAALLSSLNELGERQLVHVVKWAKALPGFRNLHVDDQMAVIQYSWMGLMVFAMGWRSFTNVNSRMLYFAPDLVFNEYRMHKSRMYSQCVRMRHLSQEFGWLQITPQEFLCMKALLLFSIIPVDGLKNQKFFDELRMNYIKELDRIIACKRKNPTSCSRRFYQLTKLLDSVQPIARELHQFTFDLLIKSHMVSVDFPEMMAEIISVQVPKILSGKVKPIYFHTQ
# Test: AR-VP16 DNA Binding Assay, antagonist mode (HepG2 cells, 0.1 nM R1881)
# Type: cell-based
# Method: Cells were transiently transfected using Lipofectin (Life Technologies) according to the manufacturer's protocol. […] Transfected cells were incubated overnight then treated with ligand. […] For antagonist assays, the compounds were serially diluted and 50 μL of compound with RPMI supplemented with charcoal stripped serum plus methyltrienolone (R1881) were added to the cells. The final R1881 concentration used in the antagonist assays was 0.1 nM. Following 48 hour incubation the medium was removed and the cells were lysed in 40 μL of lysis buffer (25 mM Tris Phosphate, 2 mM CDTA, 10% Glycerol, 0.5% Triton X-100, 2 mM DTT).
row,Compound,IC50
1,"CN1CCC(Oc2ccc(N3C(=S)N(c4cnc(C#N)c(C(F)(F)F)c4)C(=O)C3(C)C)cc2)CC1 [Compound 196, 5-(4,4-Dimethyl-3-(4-((1-methylpiperidin-4-yl)oxy)phenyl)-5-oxo-2-thioxoimidazolidin-1-yl)-3-(trifluoromethyl)picolinonitrile]",< 1000 nM
2,"N#Cc1ccc(N2C(=O)C3(CCC3)N(c3ccc(OCCc4ccccn4)c(F)c3)C2=S)c2cccnc12 [Compound 172, 5-(5-(3-Fluoro-4-(2-(pyridin-2-yl)ethoxy)phenyl)-8-oxo-6-thioxo-5,7-diazaspiro[3.4]octan-7-yl)quinoline-8-carbonitrile]",< 1000 nM
3,"N#Cc1ncc(N2C(=O)C3(CCC3)N(c3ccc(-c4ccccc4)cc3)C2=S)cc1C(F)(F)F [Compound 13, 5-(5-([1,1′-Biphenyl]-4-yl)-8-oxo-6-thioxo-5,7-diazaspiro[3.4]octan-7-yl)-3-(trifluoromethyl)picolinonitrile]",< 1000 nM
4,"CC(C)(O)CNC(=O)c1ccc(N2C(=S)N(c3cnc(C#N)c(C(F)(F)F)c3)C(=O)C23CCC3)cc1F [Compound 285, 4-(7-(6-Cyano-5-(trifluoromethyl)pyridin-3-yl)-8-oxo-6-thioxo-5,7-diazaspiro[3.4]octan-5-yl)-2-fluoro-N-(2-hydroxy-2-methylpropyl)benzamide]",> 1000 nM
5,"N#Cc1ncc(N2C(=O)C3(CCC3)N(c3ccc(OCCCN4CCCC4)c(F)c3)C2=S)cc1C(F)(F)F [Compound 185, 5-(5-(3-Fluoro-4-(3-(pyrrolidin-1-yl)propoxy)phenyl)-8-oxo-6-thioxo-5,7-diazaspiro[3.4]octan-7-yl)-3-(trifluoromethyl)picolinonitrile]",< 1000 nM
6,"CC(C)(C)OC(=O)N1CCN(c2ccc(N3C(=S)N(c4cnc(C#N)c(C(F)(F)F)c4)C(=O)C34CCC4)cc2)CC1 [Compound 119, tert-Butyl 4-(4-(7-(6-cyano-5-(trifluoromethyl)pyridin-3-yl)-8-oxo-6-thioxo-5,7-diazaspiro[3.4]octan-5-yl)phenyl)piperazine-1-carboxylate]",< 1000 nM
7,"Cc1cc(N2C(=O)C3(CCC3)N(c3ccc(-c4cncnc4)cc3)C2=S)cnc1C#N [Compound 103, 3-Methyl-5-(8-oxo-5-(4-(pyrimidin-5-yl)phenyl)-6-thioxo-5,7-diazaspiro[3.4]octan-7-yl)picolinonitrile]",< 1000 nM
8,"CCCNC(=O)c1ccc(N2C(=S)N(c3cnc(C#N)c(C(F)(F)F)c3)C(=O)C23CCC3)cc1F [Compound 278, 4-(7-(6-Cyano-5-(trifluoromethyl)pyridin-3-yl)-8-oxo-6-thioxo-5,7-diazaspiro[3.4]octan-5-yl)-2-fluoro-N-propylbenzamide]",< 1000 nM
9,"N#Cc1ncc(N2C(=O)C3(CCC3)N(c3ccc(C(=O)NCc4cccs4)c(F)c3)C2=S)cc1C(F)(F)F [Compound 260, 4-(7-(6-Cyano-5-(trifluoromethyl)pyridin-3-yl)-8-oxo-6-thioxo-5,7-diazaspiro[3.4]octan-5-yl)-2-fluoro-N-(thiophen-2-ylmethyl)benzamide]",< 1000 nM
10,"N#Cc1ncc(N2C(=O)C3(CCC3)N(c3ccc(OCc4ccncc4)c(F)c3)C2=S)cc1C(F)(F)F [Compound 156, 5-(5-(3-Fluoro-4-(pyridin-4-ylmethoxy)phenyl)-8-oxo-6-thioxo-5,7-diazaspiro[3.4]octan-7-yl)-3-(trifluoromethyl)picolinonitrile]",< 1000 nM
11,"Cc1ccc(N2C(=S)N(c3ccc4nnc(C(F)(F)F)n4n3)C(=O)C23CCC3)cc1 [Compound 30, 6-Thioxo-5-(p-tolyl)-7-(3-(trifluoromethyl)-[1,2,4]triazolo[4,3-b]pyridazin-6-yl)-5,7-diazaspiro[3.4]octan-8-one]",< 1000 nM
12,"COCCOc1ccc(N2C(=S)N(c3ccc(C#N)c4ncccc34)C(=O)C23CCC3)cc1F [Compound 171, 5-(5-(3-Fluoro-4-(2-methoxyethoxy)phenyl)-8-oxo-6-thioxo-5,7-diazaspiro[3.4]octan-7-yl)quinoline-8-carbonitrile]",< 1000 nM
13,"N#Cc1ncc(N2C(=O)C3(CCC3)N(c3ccc(OCCC(F)(F)C(F)(F)F)c(F)c3)C2=S)cc1C(F)(F)F [Compound 139, 5-(5-(3-Fluoro-4-(3,3,4,4,4-pentafluorobutoxy)phenyl)-8-oxo-6-thioxo-5,7-diazaspiro[3.4]octan-7-yl)-3-(trifluoromethyl)picolinonitrile]",< 1000 nM
14,"Cc1cccc(N2C(=S)N(c3cnc(C#N)c(C(F)(F)F)c3)C(=O)C23CCC3)c1 [Compound 21, 5-(8-Oxo-6-thioxo-5-(m-tolyl)-5,7-diazaspiro[3.4]octan-7-yl)-3-(trifluoromethyl)picolinonitrile]",< 1000 nM
15,"N#Cc1ncc(N2C(=O)C3(CCC3)N(c3ccc(Oc4ccncn4)cc3)C2=S)cc1C(F)(F)F [Compound 208, 5-(8-Oxo-5-(4-(pyrimidin-4-yloxy)phenyl)-6-thioxo-5,7-diazaspiro[3.4]octan-7-yl)-3-(trifluoromethyl)picolinonitrile]",< 1000 nM
16,"Cc1ccc(N2C(=S)N(c3ccc(C#N)n4nccc34)C(=O)C23CCC3)cc1 [Compound 82, 4-(8-Oxo-6-thioxo-5-(p-tolyl)-5,7-diazaspiro[3.4]octan-7-yl)pyrazolo[1,5-a]pyridine-7-carbonitrile]",< 1000 nM
17,"CNC(=O)c1ccc(N2C(=S)N(c3ccc(C#N)c4ncccc34)C(=O)C23CCC3)cc1F [Compound 37, 4-(7-(8-Cyanoquinolin-5-yl)-8-oxo-6-thioxo-5,7-diazaspiro[3.4]octan-5-yl)-2-fluoro-N-methylbenzamide]",< 1000 nM
18,"CC(C)(C)NC(=O)c1ccc(N2C(=S)N(c3cnc(C#N)c(C(F)(F)F)c3)C(=O)C23CCC3)cc1F [Compound 286, N-(tert-Butyl)-4-(7-(6-cyano-5-(trifluoromethyl)pyridin-3-yl)-8-oxo-6-thioxo-5,7-diazaspiro[3.4]octan-5-yl)-2-fluorobenzamide]",< 1000 nM
19,"CNC(=O)c1ccc(N2C(=S)N(c3cnc(C#N)c(C)c3)C(=O)C23CCC3)cc1C(F)(F)F [Compound 109, 4-(7-(6-Cyano-5-methylpyridin-3-yl)-8-oxo-6-thioxo-5,7-diazaspiro[3.4]octan-5-yl)-N-methyl-2-(trifluoromethyl)benzamide]",< 1000 nM
20,"N#Cc1ncc(N2C(=O)C3(CCC3)N(c3ccc(OCc4ccccn4)c(F)c3)C2=S)cc1C(F)(F)F [Compound 147, 5-(5-(3-Fluoro-4-(pyridin-2-ylmethoxy)phenyl)-8-oxo-6-thioxo-5,7-diazaspiro[3.4]octan-7-yl)-3-(trifluoromethyl)picolinonitrile]",< 1000 nM
21,"N#Cc1ncc(N2C(=O)C3(CCC3)N(c3ccc(C(=O)NCCCN4CCOCC4)c(F)c3)C2=S)cc1C(F)(F)F [Compound 268, 4-(7-(6-Cyano-5-(trifluoromethyl)pyridin-3-yl)-8-oxo-6-thioxo-5,7-diazaspiro[3.4]octan-5-yl)-2-fluoro-N-(3-morpholinopropyl)benzamide]",< 1000 nM
22,"Cc1ccc(N2C(=S)N(c3cc(C#N)n(C)c3)C(=O)C23CCC3)cc1 [Compound 114, 1-Methyl-4-(8-oxo-6-thioxo-5-(p-tolyl)-5,7-diazaspiro[3.4]octan-7-yl)-1H-pyrrole-2-carbonitrile]",> 1000 nM
23,"C#CCNC(=O)c1ccc(N2C(=S)N(c3cnc(C#N)c(C(F)(F)F)c3)C(=O)C23CCC3)cc1F [Compound 281, 4-(7-(6-Cyano-5-(trifluoromethyl)pyridin-3-yl)-8-oxo-6-thioxo-5,7-diazaspiro[3.4]octan-5-yl)-2-fluoro-N-(prop-2-yn-1-yl)benzamide]",< 1000 nM
24,"N#Cc1ncc(N2C(=O)C3(CCC3)N(c3c(F)ccc(F)c3F)C2=S)cc1C(F)(F)F [Compound 75, 5-(8-Oxo-6-thioxo-5-(2,3,6-trifluorophenyl)-5,7-diazaspiro[3.4]octan-7-yl)-3-(trifluoromethyl)picolinonitrile]",< 1000 nM
25,"CS(=O)(=O)c1ccc(N2C(=S)N(c3cnc(C#N)c(C(F)(F)F)c3)C(=O)C23CCC3)cc1 [Compound 80, 5-(5-(4-(Methylsulfonyl)phenyl)-8-oxo-6-thioxo-5,7-diazaspiro[3.4]octan-7-yl)-3-(trifluoromethyl)picolinonitrile]",< 1000 nM
26,"Cc1cc(N2C(=O)C3(CCC3)N(c3ccc(C(=O)Nc4nccs4)c(F)c3)C2=S)cnc1C#N [Compound 301, 4-(7-(6-Cyano-5-methylpyridin-3-yl)-8-oxo-6-thioxo-5,7-diazaspiro[3.4]octan-5-yl)-2-fluoro-N-(thiazol-2-yl)benzamide]",< 1000 nM
27,"N#Cc1ncc(N2C(=O)C3(CCC3)N(c3ccc(C(=O)NCc4ccccc4Cl)c(F)c3)C2=S)cc1C(F)(F)F [Compound 287, N-(2-Chlorobenzyl)-4-(7-(6-cyano-5-(trifluoromethyl)pyridin-3-yl)-8-oxo-6-thioxo-5,7-diazaspiro[3.4]octan-5-yl)-2-fluorobenzamide]",< 1000 nM
28,"Cc1cc(N2C(=O)C3(CCC3)N(c3ccc(C(=O)Nc4ncco4)c(F)c3)C2=S)cnc1C#N [Compound 300, 4-(7-(6-cyano-5-methylpyridin-3-yl)-8-oxo-6-thioxo-5,7-diazaspiro[3.4]octan-5-yl)-2-fluoro-N-(oxazol-2-yl)benzamide]",< 1000 nM
